Where a name gives a salt, the structure may show the parent alone.
Row | melting point [°C] | Structure (SMILES)
1 | 182 to 184 | Fc1ccccc1/C(=N\Cc1ccccc1)N1CCNCC1 (as salt: hydrochloride) [Compound I-7, (E)-N-((2-Fluorophenyl)(piperazin-1-yl)methylene)-1-phenylmethanaminehydrochloride]
2 | 205 to 207 | N#Cc1ccc(/C(=N\Cc2ccccc2)N2CCNCC2)cc1 (as salt: hydrochloride) [Compound I-8, (E)-4-((Benzylimino)(piperazin-1-yl)methyl)benzonitrilehydrochloride]
3 | 190 to 192 | N#Cc1cccc(/C(=N\Cc2ccccc2)N2CCNCC2)c1 (as salt: hydrochloride) [Compound I-9, (E)-3-((Benzylimino)(piperazin-1-yl)methyl)benzonitrilehydrochloride]
4 | 172 to 174 | Cc1ccc(/C(=N\Cc2ccccc2)N2CCNCC2)cc1 (as salt: hydrochloride) [Compound I-10, (E)-1-Phenyl-N-(piperazin-1-yl(p-tolyl)methylene)methanaminehydrochloride]
5 | 195 to 197 | O=[N+]([O-])c1ccc(/C(=N\Cc2ccccc2)N2CCNCC2)c(Cl)c1 (as salt: hydrochloride) [Compound I-11, (E)-N-((2-Chloro-4-nitrophenyl)(piperazin-1-yl)methylene)-1-phenylmethanaminehydrochloride]
6 | 172 to 174 | O=[N+]([O-])c1ccc(/C(=N\Cc2ccc(Cl)cc2)N2CCNCC2)cc1 (as salt: hydrochloride) [Compound I-12, (E)-1-(4-Chlorophenyl)-N-((4-nitrophenyl)(piperazin-1-yl)methylene)methanaminehydrochloride]
7 | 181 to 183 | Clc1ccc(C/N=C(\c2ccccc2Cl)N2CCNCC2)cc1 (as salt: hydrochloride) [Compound I-13, (E)-1-(4-Chlorophenyl)-N-((2-chlorophenyl)(piperazin-1-yl)methylene)methanaminehydrochloride]
8 | 218 to 220 | Clc1ccc(C/N=C(\c2cccc(Cl)c2)N2CCNCC2)cc1 (as salt: hydrochloride) [Compound I-14, (E)-1-(4-Chlorophenyl)-N-((3-chlorophenyl)(piperazin-1-yl)methylene)methanaminehydrochloride]
9 | 157 to 159 | Clc1ccc(C/N=C(\c2ccc(Cl)cc2)N2CCNCC2)cc1 (as salt: hydrochloride) [Compound I-15, (E)-1-(4-Chlorophenyl)-N-((4-chlorophenyl)(piperazin-1-yl)methylene)methanaminehydrochloride]
10 | 165 to 167 | Fc1ccc(/C(=N\Cc2ccc(Cl)cc2)N2CCNCC2)cc1 (as salt: hydrochloride) [Compound I-16, (E)-1-(4-Chlorophenyl)-N-((4-fluorophenyl)(piperazin-1-yl)methylene)methanaminehydrochloride]
11 | 215 to 217 | Fc1ccccc1/C(=N\Cc1ccc(Cl)cc1)N1CCNCC1 (as salt: hydrochloride) [Compound I-17, (E)-1-(4-Chlorophenyl)-N-((2-fluorophenyl)(piperazin-1-yl)methylene)methanaminehydrochloride]
12 | 180 to 182 | N#Cc1ccc(/C(=N\Cc2ccc(Cl)cc2)N2CCNCC2)cc1 (as salt: hydrochloride) [Compound I-18, (E)-1-(4-Chlorophenyl)-N-((4-cyanophenyl)(piperazin-1-yl)methylene)methanaminehydrochloride]
13 | 183 to 185 | Cc1ccc(/C(=N\Cc2ccc(Cl)cc2)N2CCNCC2)cc1 (as salt: hydrochloride) [Compound I-20, (E)-1-(4-Chlorophenyl)-N-(piperazin-1-yl(p-tolyl)methylene)methanaminehydrochloride]
14 | 210 to 212 | COc1ccc(C/N=C(\c2ccc([N+](=O)[O-])cc2)N2CCNCC2)cc1 (as salt: hydrochloride) [Compound I-21, (E)-1-(4-Methoxyphenyl)-N-((4-nitrophenyl)(piperazin-1-yl)methylene)methanaminehydrochloride]
15 | 187 to 189 | c1ccc(/C(=N\Cc2cccc3ccccc23)N2CCNCC2)cc1 (as salt: hydrochloride) [II-1, (E)-1-(Naphthalen-1-yl)-N-(phenyl(piperazin-1-yl)methylene)methanaminehydrochloride]
16 | 202 to 204 | O=[N+]([O-])c1ccc(/C(=N\Cc2cccc3ccccc23)N2CCNCC2)cc1 (as salt: hydrochloride) [II-2, (E)-1-(Naphthalen-1-yl)-N-((4-nitrophenyl)(piperazin-1-yl)methylene)methanaminehydrochloride]
17 | 193 to 195 | Fc1ccc(/C(=N\Cc2cccc3ccccc23)N2CCNCC2)cc1 (as salt: hydrochloride) [II-3, (E)-N-((4-Fluorophenyl)(piperazin-1-yl)methylene)-1-(naphthalen-1-yl)methanaminehydrochloride]
18 | 198 to 200 | Clc1cccc(/C(=N\Cc2cccc3ccccc23)N2CCNCC2)c1 (as salt: hydrochloride) [II-6, (E)-N-((3-Chlorophenyl)(piperazin-1-yl)methylene)-1-(naphthalen-1-yl)methanaminehydrochloride]
19 | 210 to 212 | Clc1ccc(/C(=N\Cc2cccc3ccccc23)N2CCNCC2)cc1 (as salt: hydrochloride) [II-7, (E)-N-((4-Chlorophenyl)(piperazin-1-yl)methylene)-1-(naphthalen-1-yl)methanaminehydrochloride]
20 | 158 to 160 | N#Cc1ccc(/C(=N\Cc2cccc3ccccc23)N2CCNCC2)cc1 (as salt: hydrochloride) [II-8, (E)-4-(((Naphthalen-1-ylmethyl)imino)(piperazin-1-yl)methyl)benzonitrilehydrochloride]
21 | 168 to 170 | N#Cc1cccc(/C(=N\Cc2cccc3ccccc23)N2CCNCC2)c1 (as salt: hydrochloride) [II-9, (E)-3-(((Naphthalen-1-ylmethyl)imino)(piperazin-1-yl)methyl)benzonitrilehydrochloride]
22 | 178 to 180 | Cc1ccc(/C(=N\Cc2cccc3ccccc23)N2CCNCC2)cc1 (as salt: hydrochloride) [II-10, (E)-1-(Naphthalen-1-yl)-N-(piperazin-1-yl(p-tolyl)methylene)methanaminehydrochloride]
23 | 173 to 175 | O=[N+]([O-])c1cccc2c(/C(=N\Cc3ccccc3)N3CCNCC3)cccc12 (as salt: hydrochloride) [III-1, (E)-N-((5-Nitronaphthalen-1-yl)(piperazin-1-yl)methylene)-1-phenylmethanaminehydrochloride]
